In patent US20220107328A1, “METHODS OF TREATING LIVER DISEASES” (Camp4 Therapeutics Corporation, priority 2018, published 2022):
Counter-ions that a name gives are not always drawn.

What was measured:
COL1A1 mRNA = test: qRT-PCR of COL1A1 mRNA in human primary hepatic stellate cells; assay type: cell-based; details: 3 μM, relative to GAPDH
Protocol: Cells were plated at a density of 17000 cells/well in a 96-well plate and allowed to adhere overnight. The following day cell culture media was replenished with the indicated concentration(s) of compound for 18 hours. […] Medium was removed after 18 hours and cells were processed for further analysis, e.g. qRT-PCR.
Analysis of the fold changes in expression as measured by qRT-PCR were performed using the technique below. The control was DMSO, and the treatment was the selected compound (CPD). The internal control was GAPDH or B-Actin (or otherwise indicated), and the gene of interest is the target. First, the averages of the 4 conditions were calculated for normalization: DMSO:GAPDH, DMSO:Target, CPD: GAPDH, and CPD:Target. Next, the ΔCT of both control and treatment were calculated to normalize to internal control (GAPDH) using (DMSO:Target)−(DMSO:GAPDH)=ΔCT control and (CPD:Target)−(CPD: GAPDH)=ΔCT experimental. Then, the ΔΔCT was calculated by ΔCT experimental−ΔCT control.
Candidate compounds were tested in stellate cells for their ability to modulate PNPLA3 and COL1A1. Stellate cells were treated with serial dilutions of the compounds, ranging from 0.1 μM to 100 μM. Changes in PNPLA3 (or COL1A1) mRNA levels in stellate cells were analyzed with qRT-PCR.

PNPLA3 mRNA [1] = test: qRT-PCR of PNPLA3 mRNA in human primary hepatic stellate cells; assay type: cell-based; details: 3 μM, relative to GAPDH
PNPLA3 mRNA [2] = test: qRT-PCR of PNPLA3 mRNA in compound-treated primary human hepatocytes; details: for Primary Hepatocytes 4178 PNPLA3 (fold change in mRNA expression): donor 4178, 3 μM; for Primary Hepatocytes 4178 PNPLA3 (fold change in mRNA expression) / Primary Hepatocytes 4282 PNPLA3 (fold change in mRNA expression): relative to GUSB; for Primary Hepatocytes 4282 PNPLA3 (fold change in mRNA expression): donor 4282, 3 μM; for Relative PINPLA3 mRNA: hepatocytes; for PNPLA3 expression by reported compound specificity (in words): summary of mTOR/PI3K inhibitor testing
PCSK9 mRNA = test: qRT-PCR of PCSK9 mRNA in primary hepatocytes; assay type: cell-based, human; details: donor 4178, 3 μM, relative to GUSB
PNPLA3 mRNA [3] = test: qRT-PCR of PNPLA3 mRNA in compound-treated mouse hepatocytes; assay type: cell-based; details: mouse hepatocytes, 1 μM, normalized to ACTB

| Primary Hepatocytes 4178 PNPLA3 (fold change in mRNA expression) (PNPLA3 mRNA [2]) | Primary Hepatocytes 4282 PNPLA3 (fold change in mRNA expression) (PNPLA3 mRNA [2]) | Primary Hepatocytes 4178 PCSK9 (fold change in mRNA expression) (PCSK9 mRNA) | SMILES | Primary Stellate cells COL1A1 (fold change in mRNA expression) (COL1A1 mRNA) | Primary Stellate cells PNPLA3 (fold change in mRNA expression) (PNPLA3 mRNA [1]) | also measured |
| --- | --- | --- | --- | --- | --- | --- |
| 1.57 | 0.97 | 0.69 | Nc1nc2cc(-c3ccc4ncc(C(=O)N5CCOCC5)n4c3)ccc2o1 [MLN1117] | 1.14 | 0.70 | – |
| 0.47 | 0.60 | 0.50 | Nc1cc(C(F)(F)F)c(-c2nc(N3CCOCC3)nc(N3CCOCC3)n2)cn1 [PQR309] | 0.81 | 0.88 | Relative PINPLA3 mRNA (PNPLA3 mRNA [2]; 0.1 uM): 1.353; Relative PINPLA3 mRNA (PNPLA3 mRNA [2]; 0.3 uM): 0.8236; Relative PINPLA3 mRNA (PNPLA3 mRNA [2]; 1 uM): 0.5267; Relative PINPLA3 mRNA (PNPLA3 mRNA [2]; 3 uM): 0.4657; PNPLA3 expression by reported compound specificity (in words) (PNPLA3 mRNA [2]): most robust PNPLA3 inhibition |
| 0.56 | 0.70 | 0.50 | Nc1cc(C(F)(F)F)c(-c2cc(N3CCOCC3)nc(N3CCOCC3)n2)cn1 [NVP-BKM120 (Hydrochloride)] | 0.70 | 0.43 | – |
| 1.10 | 1.20 | 1.04 | O=[N+]([O-])c1ccc(Nc2nc(N3CCOCC3)nc(N3CCOCC3)n2)cc1 [MHY1485] | 0.87 | 0.86 | – |
| 0.32 | 0.46 | 0.31 | Cc1c(CN2CCN(C(=O)[C@H](C)O)CC2)sc2c(N3CCOCC3)nc(-c3cnc(N)nc3)nc12 [Apitolisib (GDC-0980, RG7422)] | 0.54 | 0.56 | – |
| 0.60 | 0.80 | 0.66 | FC(F)c1nc2ccccc2n1-c1nc(N2CCOCC2)nc(N2CCOCC2)n1 [ZSTK474] | 0.71 | 0.68 | – |
| 0.50 | 0.50 | 0.83 | COc1ccc(-c2nc(N3CCOCC3)c3sc(CN(C)c4ncc(C(=O)NO)cn4)cc3n2)cn1 [CUDC-907] | 0.41 | 1.33 | – |
| 0.60 | 0.70 | 0.75 | Nc1cc(C(F)(F)F)c(-c2cc(N3CCOCC3)nc(N3CCOCC3)n2)cn1 [NVP-BKM120] | 0.66 | 0.43 | – |

Further lines, the compound ahead of its results:

| SMILES | Primary Hepatocytes 4178 PNPLA3 (fold change in mRNA expression) (PNPLA3 mRNA [2]) | Primary Hepatocytes 4282 PNPLA3 (fold change in mRNA expression) (PNPLA3 mRNA [2]) | Primary Hepatocytes 4178 PCSK9 (fold change in mRNA expression) (PCSK9 mRNA) | Primary Stellate cells COL1A1 (fold change in mRNA expression) (COL1A1 mRNA) | Primary Stellate cells PNPLA3 (fold change in mRNA expression) (PNPLA3 mRNA [1]) | also measured |
| --- | --- | --- | --- | --- | --- | --- |
| CO[C@H]1CC[C@H](N2C(=O)CNc3ncc(-c4ccc(C(C)(C)O)nc4)nc32)CC1 [CC-223] | 0.51 | 0.80 | 0.72 | 0.50 | 0.33 | – |
| C[C@H](Nc1ncnc2[nH]cnc12)c1nc2ccc(F)cc2c(=O)n1-c1ccccc1 [Acalisib] | 1.00 | 1.00 | 0.99 | 0.96 | 0.91 | – |
| Cc1nc(-c2cn3c(n2)-c2ccc(-c4cnn(C(C)(C)C(N)=O)c4)cc2OCC3)n(C(C)C)n1 [GDC-0032] | 0.58 | 0.60 | 0.47 | 1.05 | 0.61 | – |
| C[C@H](Nc1ncnc2[nH]cnc12)c1cc2ccc(F)cc2nc1-c1ccccn1 [AMG319] | 0.73 | 0.85 | 0.74 | 0.99 | 0.99 | – |
| O=C1OC(COc2ccccc2[N+](=O)[O-])CC1Cc1ccccc1 (stereo not shown) [Compound 3BDO] | 1.10 | 1.00 | 1.01 | 1.03 | 0.91 | – |
| CO[C@H]1C[C@@H]2CC[C@@H](C)[C@@](O)(O2)C(=O)C(=O)N2CCCC[C@H]2C(=O)O[C@H]([C@H](C)C[C@@H]2CC[C@@H](OP(C)(C)=O)[C@H](OC)C2)CC(=O)[C@H](C)/C=C(\C)[C@@H](O)[C@@H](OC)C(=O)[C@H](C)C[C@H](C)/C=C/C=C/C=C/1C [Deforolimus] | – | – | – | – | – | Relative PNPLA3 mRNA levels (PNPLA3 mRNA [3]): 0.30 ± 0.10 |
| O=c1c(O)c(-c2ccc(O)c(O)c2)oc2cc(O)cc(O)c12 [Quercetin] | 1.16 | 0.93 | 0.95 | 0.94 | 1.11 | – |
| C[C@H](NC(=O)c1c(N)nn2cccnc12)c1cc2cccc(C#Cc3cnn(C)c3)c2c(=O)n1-c1ccccc1 [IPI-549] | 0.68 | 0.68 | 0.74 | 1.00 | 0.75 | – |
| CC(C)Oc1ccc(-c2nn([C@@H](C)c3oc4ccc(F)cc4c(=O)c3-c3cccc(F)c3)c3ncnc(N)c23)cc1F [umbralisib (TGR-1202)] | 0.90 | 0.80 | 0.80 | 1.15 | 1.10 | – |
| c1cncc(CN2CCC(n3ncc4c(N5CCOCC5)nc(-c5ccc6[nH]ccc6c5)nc43)CC2)c1 [WAY600] | – | – | – | – | – | Relative PNPLA3 mRNA levels (PNPLA3 mRNA [3]): 0.67 ± 0.21 |
| Cc1nc(NC(=O)N2CCC[C@H]2C(N)=O)sc1-c1ccnc(C(C)(C)C(F)(F)F)c1 [BYL-719] | 0.69 | 0.60 | 0.71 | 1.24 | 0.70 | – |
| Cn1cc(-c2nc(N[C@@H]3CCCC[C@@H]3N)c(F)c3c2C(=O)NC3)cn1 [TAK-659] | – | – | – | – | – | Relative PNPLA3 mRNA levels (PNPLA3 mRNA [3]): 0.31 ± 0.12; Relative PNPLA3 mRNA levels (PNPLA3 mRNA [2]; Syk pathway inhibitors, 10 μM, human hepatocytes, normalized to B2M, mean of three replicates ± standard deviation): 0.44 ± 0.11 |
| COc1ncc(-c2ccc3nccc(-c4ccnnc4)c3c2)cc1NS(=O)(=O)c1ccc(F)cc1F [GSK2126458] | 0.92 | 0.80 | 0.91 | 0.42 | 0.90 | Relative PINPLA3 mRNA (PNPLA3 mRNA [2]; 1 uM): 0.395; Relative PINPLA3 mRNA (PNPLA3 mRNA [2]; 10 uM): 0.800 |
| CCn1c(=O)c(-c2cc[nH]n2)cc2c(C)nc(N)nc21 [Voxtalisib] | – | – | – | – | – | Relative PNPLA3 mRNA levels (PNPLA3 mRNA [3]): 0.31 ± 0.08 |
| CCOC(=O)C1=C(N)Oc2ccc(Cl)cc2C1C(C#N)C(=O)OCC (stereo not shown) [SC79] | 1.10 | 0.94 | 1.11 | 0.98 | 0.85 | – |
| CO[C@@H](C)Cn1c(=O)n(C)c2cnc3ccc(-c4cncc(C(C)(C)O)c4)cc3c21 [LY3023414] | 0.80 | 1.00 | 0.65 | 0.49 | 0.94 | – |
| C[C@@H](Nc1cc(F)cc(F)c1)c1cc(C(=O)N(C)C)cc2c(=O)cc(N3CCOCC3)oc12 [AZD8186] | 0.80 | 0.80 | 0.70 | 1.22 | 0.86 | – |
| Cc1c(CN2CCN(C(=O)[C@H](C)O)CC2)sc2c(N3CCOCC3)nc(-c3cnc(N)nc3)nc12 [Apitolisib] | – | – | – | – | – | Primary Stellate cells COL1A1 (fold change in mRNA expression) (COL1A1 mRNA; listed as GDC-0980): 0.61; Primary Stellate cells PNPLA3 (fold change in mRNA expression) (PNPLA3 mRNA [1]; listed as GDC-0980): 0.67; Primary Hepatocytes 4178 PNPLA3 (fold change in mRNA expression) (PNPLA3 mRNA [2]; listed as GDC-0980): 0.37; Primary Hepatocytes 4282 PNPLA3 (fold change in mRNA expression) (PNPLA3 mRNA [2]; listed as GDC-0980): 0.40; Relative PINPLA3 mRNA (PNPLA3 mRNA [2]; 0.1 uM): 0.893; Relative PINPLA3 mRNA (PNPLA3 mRNA [2]; 0.3 uM): 0.669; Relative PINPLA3 mRNA (PNPLA3 mRNA [2]; 1 uM): 0.420; Relative PINPLA3 mRNA (PNPLA3 mRNA [2]; 3 uM): 0.365; PNPLA3 expression by reported compound specificity (in words) (PNPLA3 mRNA [2]): most robust PNPLA3 inhibition; Primary Hepatocytes 4178 PCSK9 (fold change in mRNA expression) (PCSK9 mRNA; listed as GDC-0980): 0.40 |
